The record followed here is patent publication US8784782B2 (Senomyx, Inc., priority 2005, dated 2014).

For one assay, the target named is T1, hT1R1/hT1R3 umami receptor expressed in an HEK293 cell line (Homo sapiens, UniProt Q7RTX0+Q7RTX1).
T1 construct: expressed in transfected cells; host or cells: HEK293 cell line derivative, hT1R1/hT1R3-HEK293-Gα15, clone I-17, mifepristone-induced
T1 sequence (Q7RTX1 21-841): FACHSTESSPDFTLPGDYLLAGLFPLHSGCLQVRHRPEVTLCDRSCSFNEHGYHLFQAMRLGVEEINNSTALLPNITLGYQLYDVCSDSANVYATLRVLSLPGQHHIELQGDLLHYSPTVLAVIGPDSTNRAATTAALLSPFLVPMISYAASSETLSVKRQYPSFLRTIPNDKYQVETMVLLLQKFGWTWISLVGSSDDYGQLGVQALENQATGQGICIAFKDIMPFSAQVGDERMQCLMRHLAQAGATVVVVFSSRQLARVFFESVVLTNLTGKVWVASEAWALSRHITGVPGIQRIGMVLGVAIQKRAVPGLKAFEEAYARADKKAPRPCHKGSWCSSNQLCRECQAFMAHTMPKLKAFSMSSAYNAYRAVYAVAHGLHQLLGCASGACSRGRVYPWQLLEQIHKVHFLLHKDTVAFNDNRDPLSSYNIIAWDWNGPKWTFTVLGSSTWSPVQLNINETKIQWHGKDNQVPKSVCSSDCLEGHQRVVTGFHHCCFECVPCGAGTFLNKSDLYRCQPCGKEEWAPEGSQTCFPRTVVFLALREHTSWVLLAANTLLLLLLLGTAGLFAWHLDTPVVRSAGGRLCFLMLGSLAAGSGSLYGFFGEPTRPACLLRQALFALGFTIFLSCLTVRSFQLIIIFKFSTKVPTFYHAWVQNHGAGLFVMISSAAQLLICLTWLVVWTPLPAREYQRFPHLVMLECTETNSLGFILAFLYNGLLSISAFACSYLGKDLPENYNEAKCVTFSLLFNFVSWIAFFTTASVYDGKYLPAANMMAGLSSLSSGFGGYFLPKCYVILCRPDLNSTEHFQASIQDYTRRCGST
T1 sequence (Q7RTX0 21-852): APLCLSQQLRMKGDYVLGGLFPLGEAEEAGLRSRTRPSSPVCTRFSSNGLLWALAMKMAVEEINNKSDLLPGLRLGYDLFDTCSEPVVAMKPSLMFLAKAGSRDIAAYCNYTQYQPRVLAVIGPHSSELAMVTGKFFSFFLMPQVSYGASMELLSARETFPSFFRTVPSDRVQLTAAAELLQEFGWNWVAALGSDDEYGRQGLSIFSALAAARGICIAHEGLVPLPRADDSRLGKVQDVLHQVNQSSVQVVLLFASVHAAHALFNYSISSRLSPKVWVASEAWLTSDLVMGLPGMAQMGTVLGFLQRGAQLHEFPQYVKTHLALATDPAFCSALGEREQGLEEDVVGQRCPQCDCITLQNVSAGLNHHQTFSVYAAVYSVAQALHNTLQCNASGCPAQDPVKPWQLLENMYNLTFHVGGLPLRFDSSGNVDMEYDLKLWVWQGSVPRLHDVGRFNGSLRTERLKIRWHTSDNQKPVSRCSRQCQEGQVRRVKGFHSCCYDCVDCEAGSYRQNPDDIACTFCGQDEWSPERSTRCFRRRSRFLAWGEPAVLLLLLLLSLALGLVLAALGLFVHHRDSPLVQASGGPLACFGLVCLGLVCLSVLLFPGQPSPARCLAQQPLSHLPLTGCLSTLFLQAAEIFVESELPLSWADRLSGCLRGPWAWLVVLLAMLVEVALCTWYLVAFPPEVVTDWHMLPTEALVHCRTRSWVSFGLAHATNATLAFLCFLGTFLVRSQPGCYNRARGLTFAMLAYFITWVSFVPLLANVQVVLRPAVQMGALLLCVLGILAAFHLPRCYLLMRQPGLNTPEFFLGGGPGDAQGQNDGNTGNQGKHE
Kind of assay: In vitro hT1R1/hT1R3 umami taste receptor activation assay (FLIPR, dose response). It counts as cell-based. The following applies: Table A, triazoles; read-out: Umami EC50. As to the method:
Activity was determined using an automated fluorometric imaging assay on a FLIPR instrument ([…], Molecular Devices, Sunnyvale, Calif.) (designated FLIPR assay). […] After replacement with 25 μl D-PBS, stimulation was performed in the FLIPR instrument and at room temperature by the addition of 25 μl D-PBS supplemented with different stimuli at concentrations corresponding to twice the desired final level. Receptor activity was quantified by determining the maximal fluorescence increases (using a 480 nm excitation and 535 nm emission) after normalization to basal fluorescence intensity measured before stimulation.
Activities were normalized to the response obtained with 60 mM monosodium glutamate, a concentration that elicits maximum receptor response.
On to `Cc1cccc(-c2n[nH]c(SCc3ccccn3)n2)c1` [Example A8, 2-((5-m-tolyl-2H-1,2,4-triazol-3-ylthio)methyl)pyridine], for which the EC50 stood at 0.94 µM.

As for `COc1ccc(-c2n[nH]c(SCc3ccccn3)n2)cc1OC` [Example A18, 2-((5-(3,4-dimethoxyphenyl)-2H-1,2,4-triazol-3-ylthio)methyl)pyridine], the EC50 was found to be 4.08 µM.

Consider `CCn1c(SCc2cccnc2)nnc1-c1cc2ccccc2cc1O` [Example A26, 3-(4-ethyl-5-(pyridin-3-ylmethylthio)-4H-1,2,4-triazol-3-yl)naphthalen-2-ol], for which the EC50 was 1.89 µM. Regarding `Cn1c(Cc2ccsc2)nnc1SCc1ccc(Cl)cc1` [Example A27, 3-(4-chlorobenzylthio)-4-methyl-5-(thiophen-3-ylmethyl)-4H-1,2,4-triazole], the EC50 was determined as 7.92 µM. The same measure, in the same setting: with `Cc1ccoc1-c1n[nH]c(SCc2ccccn2)n1` [Example A21, 2-((5-(3-methylfuran-2-yl)-2H-1,2,4-triazol-3-ylthio)methyl)pyridine] the figure was 9.41 µM.

Turning to `COc1ccccc1-c1n[nH]c(SCCc2ccccn2)n1` [Example A22, 2-(2-(5-(2-methoxyphenyl)-2H-1,2,4-triazol-3-ylthio)ethyl)pyridine], the EC50 worked out at 7.38 µM. Regarding `Cn1c(Cc2ccccc2)nnc1SCc1ccc(Cl)cc1Cl` [Example A24, 3-benzyl-5-(2,4-dichlorobenzylthio)-4-methyl-4H-1,2,4-triazole], the EC50 was 6.05 µM. Same read-out and setting: for `COc1ccc(-c2n[nH]c(SCc3ccc(C)cn3)n2)c(OC)c1` [Example A9, 2-((5-(2,4-dimethoxyphenyl)-2H-1,2,4-triazol-3-ylthio)methyl)-5-methylpyridine] the value was 1.07 µM; for `CCn1c(SCc2cccnc2)nnc1-c1cccc(C)c1` [Example A25, 3-((4-ethyl-5-m-tolyl-4H-1,2,4-triazol-3-ylthio)methyl)pyridine], 13.1 µM; for `COc1ccc(-c2n[nH]c(SCc3ccccn3)n2)cc1` [Example A6, 2-((5-(4-methoxyphenyl)-2H-1,2,4-triazol-3-ylthio)methyl)pyridine], 0.52 µM. As to `Clc1ccccc1-c1n[nH]c(SCc2ccccn2)n1` [Example A14, 2-((5-(2-chlorophenyl)-2H-1,2,4-triazol-3-ylthio)methyl)pyridine], the EC50 worked out at 2.48 µM. On to `c1ccc(CSc2nc(-c3cccc4c3OCO4)n[nH]2)nc1` [Example A11, 2-((5-(benzo[d][1,3]dioxol-4-yl)-2H-1,2,4-triazol-3-ylthio)methyl)pyridine], for which the EC50 came out at 1.35 µM. As for `Cn1c(Cc2ccccc2)nnc1SCc1ccc(Cl)c(Cl)c1` [Example A23, 3-benzyl-5-(3,4-dichlorobenzylthio)-4-methyl-4H-1,2,4-triazole], the EC50 came to 13 µM.

Still in this assay, the particulars now being: Table B, pyridazines; read-out: Umami EC50.
For `c1cncc(CSc2ccc(-c3ccc4c(c3)OCCO4)nn2)c1` [Example B3, 3-(2,3-dihydrobenzo[b][1,4]dioxin-6-yl)-6-(pyridin-3-ylmethylthio)pyridazine], the EC50 is 8.4 µM.

Take `c1ccc(CSc2ccc(-c3ccc4c(c3)OCCO4)nn2)nc1` [Example B1, 3-(2,3-dihydrobenzo[b][1,4]dioxin-yl)-6-(pyridin-2-ylmethylthio)pyridazine]: the EC50 was found to be 0.6 µM. On to `COc1ccc(-c2ccc(SCc3ccccn3)nn2)cc1OC` [Example B2, 3-(3,4-dimethoxyphenyl)-6-(pyridin-2-ylmethylthio)pyridazine], for which the EC50 was determined as 1.7 µM.

The same assay, now with this note: Table C, tetrazole; read-out: Umami EC50.
Turning to `CSc1ccc(-c2nnn(Cc3ccccn3)n2)cc1` [Example C1, 2-((5-(4-(methylthio)phenyl)-2H-tetrazol-2-yl)methyl)pyridine], the EC50 worked out at 5.91 µM.

Staying with this assay, now noted: read-out: EC50 for activation of a hT1R1/hT1R3 umami receptor expressed in an HEK293 cell line.
`COc1ccc(Cc2nc(SCc3ccccn3)n[nH]2)c(OC)c1` [Example 9, 2-((5-(2,4-dimethoxybenzyl)-1H-1,2,4-triazol-3-ylthio)methyl)pyridine]: the EC50 came to 1.2 µM. As for `CCc1ccc(-c2nc(SCc3ccccn3)n[nH]2)c(OC)c1` [Example 18, 2-((5-(4-ethyl-2-methoxyphenyl)-1H-1,2,4-triazol-3-ylthio)methyl)pyridine], the EC50 amounted to 0.05 µM. As to `Cc1ccc(-c2ccc(OCc3ccccn3)nn2)c(C)c1` [Example 15, 3-(2,4-Dimethylphenyl)-6-(pyridin-2-ylmethoxy)pyridazine], the EC50 came out at 6.9 µM. For the compound `Cc1ccc(-c2ccc(SCc3ccccn3)nn2)c(C)c1` [Example 13, 3-(2,4-Dimethylphenyl)-6-(pyridin-2-ylmethylthio)pyridazine], the EC50 was 1.5 µM. In the case of `Cc1ccc(-c2nnc(NCc3ccccn3)o2)c(C)c1` [Example 16, 5-(2,4-Dimethylphenyl)-N-(pyridin-2-ylmethyl)-1,3,4-oxadiazol-2-amine], the EC50 was found to be 10.3 µM. On to `COc1cc(C)ccc1-c1nc(SCc2ccc(C)cn2)n[nH]1` [Example 2, 2-((5-(2-methoxy-4-methylphenyl)-1H-1,2,4-triazol-3-ylthio)methyl)-5-methylpyridine], for which the EC50 amounted to 0.49 µM. In the case of `Cc1ccc(-c2cn(Cc3ccccn3)nn2)cc1` [Example 11, 2-((4-p-Tolyl-1H-1,2,3-triazol-1-yl)methyl)pyridine], the EC50 is 4.66 µM. As to `CCc1ccc(-c2nc(SCc3ccccn3)n[nH]2)c(C)c1` [Example 10, 2-((5-(4-Ethyl-2-methylphenyl)-1H-1,2,4-triazol-3-ylthio)methyl)pyridine], the EC50 was found to be 0.02 µM. The same measure, in the same setting: with `Cc1ccc(-c2ccc(SCc3cccnc3)nn2)c(C)c1` [Example 17] the figure was 15.2 µM; with `Cc1ccc(-c2cn(CCc3ccccn3)nn2)cc1` [Example 12, 2-(2-(4-p-Tolyl-1H-1,2,3-triazol-1-yl)ethyl)pyridine], 16.4 µM.

Turning to `Cc1ccc(-c2ccc(SCc3ccccc3)nn2)c(C)c1` [Example 14, 3-(Benzylthio)-6-(2,4-dimethylphenyl)pyridazine], the EC50 came out at 2.7 µM.

The target in a further assay is T1, hT1R1/hT1R3 umami receptor expressed in an HEK293 cell line. Kind of assay: Umami taste enhancement activity assay (EC50 ratio vs. MSG, FLIPR). The following applies: Table A, @ 0.3 μM compound. It counts as cell-based. How it is done: A series of measurements of the dose response is run in solutions comprising MSG alone, then a second dose response is run with MSG in combination with predetermined amounts of a candidate compound of Formula (I) at the same time.
Typical compound concentrations tested were 30 μM, 10 μM, 3 μM, 1 μM, 0.3 μM, 0.1 μM and 0.03 μM. The relative efficacy of compounds of Formula (I) at enhancing the receptor was determined by calculating the magnitude of a shift in the EC50 for monosodium glutamate. Enhancement was defined as a ratio (EC50R) corresponding to the EC50 of monosodium glutamate, determined in the absence of the test compound, divided by the EC50 of monosodium glutamate, determined in the presence of the test compound.
Stated alternatively, “EC50 ratio” as compared to MSG is calculated based on the following definitions: EC50 Ratio vs. MSG=EC50 (MSG)/EC50 (MSG+[Compound]) • wherein “[compound]” refers to the concentration of the compound of Formula (I) used to elicit (or enhance or potentiate) the MSG dose response.
In the case of `COc1ccc(-c2n[nH]c(SCc3ccccn3)n2)cc1OC` [Example A18, 2-((5-(3,4-dimethoxyphenyl)-2H-1,2,4-triazol-3-ylthio)methyl)pyridine], the “Ec50 ratio (vs. MSG)” value is 2.13.

The assay is the same for the next values; noted with them: compound present at 0.1 μM.
For `COc1ccc(Cc2nc(SCc3ccccn3)n[nH]2)c(OC)c1` [Example 9, 2-((5-(2,4-dimethoxybenzyl)-1H-1,2,4-triazol-3-ylthio)methyl)pyridine], the “EC50 ratio (enhanced the effectiveness of monosodium glutamate)” value is 2.66.
